Laboratory results as given in the NIST ThermoML archive (doi:10.1021/je700062x).

Test: wn = mass fraction of the nth substance listed
Details: 101 kPa, Liquid, controlled-strain rheometer (ARES-RFS, TA Instruments)

O=C[C@H](O)[C@@H](O)[C@@H](O)[C@H](O)CO [(+)-galactose] + O
viscosity [mPa·s]
Details | w1 = 0.05 | w1 = 0.1 | w1 = 0.15 | w1 = 0.2 | w1 = 0.3 | w1 = 0.4
268.15 K | – | – | – | – | 8.95 | 18.84
273.15 K | 2.42 | 2.779 | 3.325 | 4.27 | 6.93 | 14.56
278.15 K | 2.077 | 2.4 | 2.77 | 3.37 | 5.34 | 11.17
283.15 K | 1.699 | 2.107 | 2.469 | 2.76 | 4.57 | 9
293.15 K | 1.397 | 1.52 | 1.77 | 2.1 | 3.27 | 6.11

O=C(CO)[C@@H](O)[C@H](O)[C@H](O)CO [D-fructose] + O
viscosity [mPa·s]
Details | w1 = 0.05 | w1 = 0.1 | w1 = 0.2 | w1 = 0.3 | w1 = 0.4 | w1 = 0.5 | w1 = 0.6 | w1 = 0.7
263.15 K | – | – | – | – | – | – | – | 4270
268.15 K | – | – | – | 7.97 | 18.51 | 54.8 | 238 | 2446
273.15 K | 2.345 | 2.89 | 4.2 | 6.39 | 14.02 | 35.06 | 148.7 | 1418
278.15 K | 1.999 | 2.44 | 3.39 | 5.5 | 10.84 | 25.27 | 103.4 | 843
283.15 K | 1.681 | 1.991 | 2.859 | 4.45 | 8.07 | 19.44 | 72 | 509.4
293.15 K | 1.26 | 1.43 | 2.092 | 3.07 | 5.67 | 14.33 | 38.31 | 220.7

O=C[C@H](O)[C@@H](O)[C@H](O)[C@H](O)CO [D-glucose] + O
viscosity [mPa·s]
Details | w1 = 0.05 | w1 = 0.1 | w1 = 0.2 | w1 = 0.3 | w1 = 0.4 | w1 = 0.5
268.15 K | – | – | – | – | – | 50.8
273.15 K | 2.39 | 2.908 | 4.3 | 8.17 | 15.28 | 37.31
278.15 K | 1.98 | 2.47 | 3.46 | 5.94 | 11.19 | 26.54
283.15 K | 1.76 | 2.02 | 2.93 | 4.83 | 9.63 | 20.52
293.15 K | 1.36 | 1.58 | 2.13 | 3.46 | 6.21 | 13.43

OC[C@H]1O[C@@](CO)(O[C@H]2O[C@H](CO)[C@@H](O)[C@H](O)[C@H]2O)[C@@H](O)[C@@H]1O [D-sucrose] + O
viscosity [mPa·s]
Details | w1 = 0.05 | w1 = 0.1 | w1 = 0.2 | w1 = 0.3 | w1 = 0.4 | w1 = 0.5 | w1 = 0.6
268.15 K | – | – | – | – | 25.48 | 92.4 | 491.8
273.15 K | 2.45 | 2.978 | 4.42 | 7.19 | 19.81 | 66.8 | 316.5
278.15 K | 1.91 | 2.472 | 3.48 | 5.99 | 14.22 | 42.93 | 228.9
283.15 K | 1.72 | 2.02 | 3.01 | 5.06 | 11.31 | 31.33 | 153.1
293.15 K | 1.246 | 1.48 | 2.38 | 3.46 | 7.53 | 20.09 | 83.9
